Source: the supplement of paper PMC10307832

What was measured:
Assay in all cases: relative viability (nuclei count vs DMSO), 5 days (fraction); higher = more cells survive
Idelalisib + Luminespib = compound: CC[C@H](Nc1ncnc2[nH]cnc12)c1nc2cccc(F)c2c(=O)n1-c1ccccc1 [Idelalisib] + CCNC(=O)c1noc(-c2cc(C(C)C)c(O)cc2O)c1-c1ccc(CN2CCOCC2)cc1 [Luminespib] (partner 0.01 µM)
Method in brief: (§1)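 Each reported value is a median over duplicate plates. It expresses relative viability: treated-well nuclei count divided by vehicle-well nuclei count. Lung cancer cell lines in 1536-well plates were dosed by pin tool a day after seeding, alone with one drug or with a fixed anchor-drug dose plus five library-drug doses (not always all listed) in √10 steps, and nuclei were counted after 5 days.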

Idelalisib + AZD7762 = compound: CC[C@H](Nc1ncnc2[nH]cnc12)c1nc2cccc(F)c2c(=O)n1-c1ccccc1 [Idelalisib] + NC(=O)Nc1cc(-c2cccc(F)c2)sc1C(=O)N[C@H]1CCCNC1 [AZD7762] (partner 0.2 µM)
Method in brief: as §1

Pemetrexed + Foretinib = compound: Nc1nc2[nH]cc(CCc3ccc(C(=O)N[C@@H](CCC(=O)O)C(=O)O)cc3)c2c(=O)[nH]1 [Pemetrexed] + COc1cc2c(Oc3ccc(NC(=O)C4(C(=O)Nc5ccc(F)cc5)CC4)cc3F)ccnc2cc1OCCCN1CCOCC1 [Foretinib] (partner 0.25 µM)
Method in brief: as §1

Pemetrexed + Dasatinib = compound: Nc1nc2[nH]cc(CCc3ccc(C(=O)N[C@@H](CCC(=O)O)C(=O)O)cc3)c2c(=O)[nH]1 [Pemetrexed] + Cc1nc(Nc2ncc(C(=O)Nc3c(C)cccc3Cl)s2)cc(N2CCN(CCO)CC2)n1 [Dasatinib] (partner 0.075 µM)
Method in brief: as §1

Cell Line | relative viability (Idelalisib + Luminespib; first compound 0.04 µM) | relative viability (Idelalisib + Luminespib; first compound 0.1265 µM) | relative viability (Idelalisib + Luminespib; first compound 0.4 µM) | relative viability (Idelalisib + Luminespib; first compound 1.265 µM) | relative viability (Idelalisib + Luminespib; first compound 4 µM) | relative viability (Idelalisib + AZD7762; first compound 0.04 µM) | relative viability (Idelalisib + AZD7762; first compound 0.1265 µM) | relative viability (Idelalisib + AZD7762; first compound 0.4 µM) | relative viability (Idelalisib + AZD7762; first compound 1.265 µM) | relative viability (Idelalisib + AZD7762; first compound 4 µM) | relative viability (Pemetrexed + Foretinib; first compound 0.002 µM) | relative viability (Pemetrexed + Foretinib; first compound 0.006325 µM) | relative viability (Pemetrexed + Foretinib; first compound 0.02 µM) | relative viability (Pemetrexed + Foretinib; first compound 0.06325 µM) | relative viability (Pemetrexed + Foretinib; first compound 0.2 µM) | relative viability (Pemetrexed + Dasatinib; first compound 0.002 µM) | relative viability (Pemetrexed + Dasatinib; first compound 0.006325 µM) | relative viability (Pemetrexed + Dasatinib; first compound 0.02 µM) | relative viability (Pemetrexed + Dasatinib; first compound 0.06325 µM) | relative viability (Pemetrexed + Dasatinib; first compound 0.2 µM)
201T | 1.12 | 1.07 | 1.02 | 1.02 | 0.849 | 0.712 | 0.587 | 0.523 | 0.377 | 0.583 | 1.1 | 1.11 | 1.19 | 0.69 | 0.316 | 0.59 | 0.554 | 0.592 | 0.559 | 0.507
A549 |  |  |  |  |  |  |  |  |  |  | 0.935 | 0.902 | 1.08 | 1.02 | 0.925 |  |  |  |  | 
A-427 | 0.833 | 0.857 | 0.744 | 0.879 | 0.783 | 0.773 | 0.748 | 0.66 | 0.442 | 0.624 | 0.994 | 1.02 | 1.08 | 0.961 | 0.929 | 0.618 | 0.696 | 0.711 | 0.689 | 0.664
ABC-1 | 0.466 | 0.643 |  | 0.521 | 0.497 | 0.904 | 0.738 | 0.783 | 0.729 | 0.864 | 1.26 | 0.927 | 1.01 | 0.992 | 1.08 | 0.785 | 0.591 | 0.626 | 0.546 | 0.422
BEN | 0.333 | 0.459 | 0.232 | 0.416 | 0.242 | 0.748 | 0.739 | 0.765 | 0.584 | 0.664 | 0.739 | 0.739 | 0.83 | 0.615 | 0.726 | 0.374 | 0.288 | 0.345 | 0.303 | 0.349
CAL-12T | 0.302 | 0.635 | 0.362 | 0.564 | 0.264 | 0.843 | 0.653 | 0.713 | 0.398 | 0.654 | 1.04 | 1.07 | 1.24 | 1.17 | 1.04 | 0.327 | 0.322 | 0.515 | 0.43 | 0.5
COR-L23 | 0.848 | 0.681 | 0.699 | 0.819 | 0.549 |  |  |  |  |  | 1.01 | 1.07 | 0.946 | 0.497 | 0.239 | 0.457 | 0.468 | 0.396 | 0.263 | 0.135
COR-L 105 | 0.695 | 0.783 | 0.814 | 0.699 | 0.573 |  |  |  |  |  | 0.97 | 1.16 | 1.17 | 1.15 | 1.24 | 0.349 | 0.216 | 0.399 | 0.363 | 0.398
Calu-6 |  |  |  |  |  |  |  |  |  |  | 0.821 | 0.877 | 0.95 | 0.888 | 0.845 |  |  |  |  | 
ChaGo-K-1 | 0.558 | 0.632 | 0.516 | 0.523 | 0.537 | 0.943 | 0.885 | 0.826 | 0.606 | 0.841 | 0.991 | 0.919 | 0.948 | 0.529 | 0.301 | 0.59 | 0.555 | 0.591 | 0.266 | 0.237
EBC-1 |  |  |  |  |  |  |  |  |  |  | 0.117 | 0.112 | 0.107 | 0.0993 | 0.0915 |  |  |  |  | 
EKVX | 0.703 | 0.916 | 0.723 | 0.804 | 0.814 | 0.706 | 0.698 | 0.596 | 0.558 | 0.64 | 0.733 | 0.795 | 1.05 | 0.908 | 0.491 | 0.572 | 0.544 | 0.615 | 0.336 | 0.479
EMC-BAC-2 | 1.34 | 1.24 | 1.03 | 1.25 | 1.13 | 1.08 | 1.1 | 1.02 | 1.11 | 1.08 | 1.02 | 0.923 | 1.01 | 1 | 0.902 | 0.161 | 0.344 | 0.32 | 0.331 | 0.27
EPLC-272H | 0.521 | 0.291 | 0.309 | 0.265 | 0.325 | 0.202 | 0.171 | 0.28 | 0.124 | 0.153 | 0.648 | 0.609 | 0.774 | 0.678 | 0.573 | 0.328 | 0.382 | 0.419 | 0.299 | 0.297
H3255 | 1.13 | 0.786 | 0.78 | 0.882 | 0.878 | 0.956 | 0.859 | 0.911 | 0.909 | 0.802 | 0.608 | 0.924 | 1.07 | 0.943 | 0.741 | 0.236 | 0.403 | 0.429 | 0.362 | 0.29
HARA | 0.778 | 0.642 | 0.613 | 0.683 | 0.6 | 0.309 | 0.301 |  | 0.169 | 0.392 | 0.856 | 0.87 | 1 | 0.846 | 0.393 | 0.231 | 0.237 | 0.327 | 0.2 | 0.162
HCC-15 | 0.185 | 0.242 | 0.286 | 0.26 | 0.404 | 1.35 | 0.909 | 1.25 | 1.16 | 1.21 | 0.987 | 0.987 | 1.06 | 0.645 | 0.219 | 0.661 | 0.609 | 0.619 | 0.31 | 0.148
HCC-44 | 1.25 | 1.06 | 0.852 | 1.18 | 1.05 | 1.04 | 0.998 | 1.03 | 0.991 | 1.11 |  |  |  |  |  |  |  |  |  | 
HCC-78 |  |  |  |  |  | 0.509 | 0.649 | 0.555 | 0.609 | 0.547 | 0.447 | 0.541 | 0.54 | 0.319 | 0.298 | 0.305 | 0.453 | 0.363 | 0.241 | 0.246
